The source of these data is US20260138969A1 (Korea Research Institute of Chemical Technology, priority 2023, published 2026).

Holding throughout (type): in vivo
Assay [1] deals with SOD1 G93A transgenic ALS mouse model. Briefly: SOD1 G93A transgenic ALS mouse model: disease symptom score (ALSTDI). Particulars: 30 mg/kg PO QD from 8 weeks of age; vs G2. As to the method:
(§1) The test drug was administered once daily (QD) via oral administration (PO) in a solution of 5 mL/kg from 8 weeks of age until death. Body weight was measured weekly, and disease score was measured daily from 8 weeks until the death of the animal. Motor behavior tests (grip strength) and neurological score tests (modified Irwin test) were performed at 9, 11, 13, 15, 17, 19, and 21 weeks, respectively. The survival of the mice was monitored daily.
From 8 weeks of age, the neurological scoring system developed by the ALS Therapy Development Institute (ALSTDI) method was used to evaluate disease symptoms in mice. Both hind legs were scored based on Table 14 below.

Assay [2] shares this test system. The assay is described as follows: SOD1 G93A transgenic ALS mouse model: survival. Particulars: 30 mg/kg PO QD from 8 weeks of age until death; vs G2. As to the method: as §1
The survival of the mice was monitored daily. The survival age of mice was recorded and labeled as Kaplan Meier survival plots.

In assay [3] the test system is α-Syn transgenic Parkinson's disease mouse model. The assay is described as follows: α-Syn transgenic Parkinson's disease mouse model: microglial reduction (Iba-1). Conditions: 9 months of age; Memantine 10 mg/kg (G3), G4 2 mg/kg, G5 10 mg/kg, G7 2 mg/kg PO QD. As to the method:
The test drug was administered once daily (QD) via oral administration (PO) with a solution of 5 ml/kg for 5 months from 4 months to 9 months of age. Motor behavior tests (beam test) and neurological scores (modified Irwin test) were performed at 4 months (before administration), 7 months, and 9 months. After the final behavioral test, tissue samples were taken. Weight was measured on the same day once a week from 4 months of age until the end of the study.
At 9 months of age, the measurement period ended, the mice were anesthetized, and then the experiment was terminated by cardiac puncture according to IACUC guidelines. Mice were perfused transcardially with 0.9% saline for tissue staining, followed by 4% paraformaldehyde until the mice were fixed. The brains were isolated and immobilized by soaking in 4% paraformaldehyde at 4° C. for 24 hours, followed by 30% sucrose added to PBS containing 0.02% sodium azide and stored at 4° C. for 3 days. Brain samples embedded in OCT compounds were sectioned to a thickness of 20 μm using Leica CM1950 (Leica Microsystems, Germany). The sections were stored at 4° C. in a preservation solution until they were stained by antibodies. […]
To assess microgliosis of the cortex, Iba-1-stained brain tissue was imaged in experimental example 10.5 using an immunofluorescence microscope (Olympus, BZ21) in Olympus. Each marker was manually counted to quantify Iba1.

Assay [4] has as its system Reserpine-induced fibromyalgia rat model. Briefly: Reserpine-induced fibromyalgia rat model: pain (von Frey test). As to the method:
Reserpine-induced fibromyalgia model generation and drug administration were carried out on 6-week-old male SD rats divided into 6 groups as shown in Table 15 below: control group (G1), reserpine+delivery (G2), reserpine+gabapentin 50 mg/kg (G3), reserpine+Example 2 3 mg/kg (G4), 10 mg/kg (G5), and 30 mg/kg (G6). To create a rat fibromyalgia model, reserpine (Sigma-aldrich, 1 mg/kg) dissolved in 0.5% acetic acid was administered subcutaneously once for 3 days from 3 days before the start of the experiment. Beginning on Day 1, the once-daily (QD) delivery body, gabapentin, and embodiment 2 were administered intraperitoneally (IP) or orally (PO) 2 hours before the experiment was performed.
The right hind foot tactile response test (von Frey test) was performed 5 times (before the fibromyalgia model, and on the 1st, 2nd, 4th and 6th days after the model was generated). Before all behavioral tests, rats were accustomed to the environment for 30 minutes, and all experimenters performing behavioral tests were made blind to drug administration information. Before model generation, baseline measurements were performed by performing the von Frey test on all rats. The rat was placed on a wired mesh and placed in a transparent plastic box (20×20×14 cm), and the foot withdrawal threshold was measured by applying a von Frey filament (ascending weight: 0.4, 0.6, 1.4, 2, 4, 6, 8, and 15 g, North Coast) to the middle of the right hind foot to assess foot allodynia.

Each structure is given as a SMILES string.

Turning to `Cc1cc(F)c(C(=O)Nc2cccc(-n3nnc4c3CCCC4)n2)cc1-n1cnc(C2CC2)c1` [Example 3, 5-(4-cyclopropyl-1H-imidazole-1-yl)-2-fluoro-4-methyl-N-(6-(4,5,6,7-tetrahydro-1H-benzo[d][1,2,3]triazole-1-yl)pyridine-2-yl)benzamide], the disease symptom score entry in assay [1] is “tended to have a lower disease symptom score compared to G2 during the observation period, and decreased significantly at 20 weeks”. Besides, the survival rate result in assay [2] is recorded as “tendency to improve survival rate, although it was not significant compared to group G2”.

For `Cc1cc(F)c(C(=O)Nc2cccc(-n3nnc4c3CCC4)n2)cc1-n1cnc(C2CC2)c1` [Example 2, 5-(4-cyclopropyl-1H-imidazole-1-yl)-N-(6-(5,6-dihydrocyclopenta[d][1,2,3]triazole-1 (4H)-yl)pyridine-2-yl)-2-fluoro-4-methylbenzamide], the “number of IBA-1 positive cells in the cerebral cortex” value in assay [3] is “significantly reduced”. The “pain improvement efficacy (von Frey test)” value in assay [4] (30 mg/kg PO QD) is on record as “significant efficacy”. In addition, the “sensitivity (foot withdrawal threshold, von Frey test)” value in assay [4] (gabapentin 50 mg/kg IP QD, Example 2 3, 10, 30 mg/kg PO QD, days 1, 2, 4, 6) is listed as “gradually improved over time”.
